Reference: patent US20220339178A1, “COMPOSITIONS AND METHODS FOR COGNITIVE PROTECTION OF POLLINATORS AGAINST PESTICIDES” (priority 2019, published 2022)

Tests used:
Drosophila melanogaster = experiment: Motor activity (negative geotropic response) test in flies: rutin vs imidacloprid; type: in vivo
Method: Standard methods were relied on to test motor activity and motor impairments in Drosophila melanogaster (Jimenez-Del-Rio et al. 2010. Neurochem Res 35:227-238). The method relies on the negative geotropic response (i.e. preference to walk up when standing on a wall) of insects. Four-day-old (post eclosion) D. melanogaster females were randomly assigned to one of four treatments: Control (fed on 5% sugar-water), Rutin 0.1 (fed on a solution 0.1 μM rutin in 5% sugar-water), Rutin 1 (fed on a solution 1 μM rutin in 5% sugar-water), Rutin 10 (fed on a solution 10 uM rutin in 5% sugar-water). After three days flies from each group were randomly assigned to one of two treatments: 5% sugar-water or 0.1 μM imid in 5% sugar-water. Thus, flies were in one of eight treatments: Control, Imid, Rut 0.1, Rut 0.1+Imid, Rut 1, Rut 1+Imid, Rut 10, Rut 10+Imid. Flies were exposed to their specific treatment for 22 h.
Following standard methods, flies were transferred to a clean vial and a threshold of 5 cm from the bottom was set on the vial. The bottom of the vial was knocked on the table to assure all flies were moved to the bottom. The number of flies that crossed the threshold within 6 seconds were counted. Data were analyzed using a Chi-square with specific predictions (one-tail tests) for planned comparisons. Error associated with multiple comparisons was corrected using the False Discovery Rate-method (two stage sharpen method).

[1] = test system: bumblebee Bombus impatiens; experiment: Olfactory conditioning of PER in bumblebees: ad libitum rutin vs acute imidacloprid or fipronil; type: in vivo; conditions: for learning score relative to Control bees: score 0-10, ad libitum 1 μM rutin three days, 5 nM imidacloprid or 6 nM fipronil 20 μL 2 hours before training
Method: One colony of the bumblebee Bombus impatiens (Koppert Inc) was kept in laboratory conditions. Bees received pollen inside the nests and foraged to a 1M sugar-water feeder outside of the nest. Bees were collected while on the feeder and iced anesthetized to then be randomly assigned to one of two plastic containers where ad libitum self-administration of one of two solutions was allowed to 10 bees: i) 1 M sucrose water or ii) 1 μM Rutin (Sigma-Aldrich R5143) diluted in 1M sucrose water. On the night of the third day, the feeder was removed to starve the bees. On the fourth day, the bees were iced anesthetized and yolked restrained in plastic pipettes. Bees were maintained in the pipettes for the rest of the experiment (two days). One hour after harnessing, the bees were randomly assigned to one of three treatments: i) 20 μL of 1M sucrose water, ii) 20 μL of 1M sucrose water+5 nM imidacloprid, iii) 20 μL of 1M sucrose water+6 nM fipronil. Thus, overall bees belonged to one of six treatments:
Control: ad libitum sucrose water for three days and 20 μL of sucrose water before training
Rutin: ad libitum 1 μM Rutin for three days and 20 μL of sucrose water before training
Imid: ad libitum sucrose water for three days and 20 μL of 5 nM Imidacloprid in 1M sugar water 2 hours before training
Rutin+Imid: ad libitum 1 μM Rutin for three days and 20 μL of 5 nM Imidacloprid in 1M sugar water 2 hours before training
Fipronil: ad libitum sucrose water for three days and 20 μL of 5 nM fipronil in 1M sucrose water 2 hours before training
Rutin+Fipronil: ad libitum […] Rutin for three days and 20 μL of 6 nM fipronil in 1M sugar water 2 hours before training
All bees were blind-trained using olfactory conditioning of the proboscis extension response (PER). Briefly, bees were exposed to a presentation of 1-nonanol (Sigma-Aldrich) for 10 s. After 7 s of the onset of the odor presentation, the antenna was stimulated with 1.5 M sugar-water to elicit the PER. Following the PER, the bee was allowed to drink sugar-water for 3 s. Each paired presentation was considered a training trial and each individual received eleven training trials with an average intertrial interval of 10 minutes. After training, all bees were fed 20 μL of 1M sugar water and maintained in plastic boxes for 24 h until the retention test. […] Twenty-four hours after the last training trial the bees were presented with the conditioned odor for 10 s.
Learning for each individual was quantified as the number of conditioned PER responses across the trials. Thus, for each bee a learning score between zero and ten (0-10) was recorded.
Multiple comparisons were then run comparing learning score relative to Control bees using a non-parametric one or two-tailed Steel Method depending upon predictions. These comparisons informed us about the predicted impairment produced by the insecticides, the predicted innocuous effect of the flavonoid and the potential level of protection. Error due to multiple comparisons was controlled using the False Discovery Rate method (FDR-two stage sharpened method). In all cases corrected p-values (q-values) are presented.
Memory retention was quantified as a nominal variable (yes/no). Data were compared across treatments using a Chi-square test, followed by multiple comparisons of all treatments vs. Control. Error due to multiple comparisons was controlled using the FDR as indicated above. In all cases corrected p-values (q values) are presented.
Latency was quantified as a continuous variable between 0.5 s and 10 s. Data were compared across treatments using an ANOVA following a Log transformation to normalize the distribution (Shapiro-Wilk W Test after log transformation: p>0.05 for all treatments for the null hypothesis that data is from a normal distribution), followed by multiple comparisons between all treatments and the Control group. Error due to multiple comparisons was controlled using the FDR method as indicated above. […]

Row | SMILES | motor performance relative to flies in the control group (Drosophila melanogaster; 0.1 μM imid in 5% sugar-water for 22 h, flies crossing 5 cm threshold within 6 seconds) | motor performance relative to flies prophylactically receiving 0.1 μM rutin (Drosophila melanogaster; comparator rutin 0.1 μM then imid) | motor performance relative to flies prophylactically receiving 1 NM rutin (Drosophila melanogaster; comparator rutin 1 μM then imid) | motor performance relative to flies prophylactically receiving 10 μM rutin (Drosophila melanogaster; comparator rutin 10 μM then imid) | odds of remembering for Control bees relative to insecticide bees ([1]; 24 h retention) [times] | proportion difference Control minus insecticide group for a PER response (Adjusted Wald test) ([1]; 24 h retention) | decision-making ratio (latency of response / learning score) relative to Control bees ([1]; bumblebees) | bees exhibiting a conditioned response after 24 h ([1]; bumblebees, 24 h retention test) [%] | learning score relative to Control bees ([1]; bumblebees) | protection against imidacloprid neuromotor impairment (Drosophila melanogaster; flies fed rutin 0.1, 1 or 10 μM for three days before 0.1 μM imid)
1 | O=[N+]([O-])NC1=NCCN1Cc1ccc(Cl)nc1 [Imidacloprid] | lower performance | significantly lower | significantly lower | significantly lower | 12 | 0.51 | significant increase | 13 | significantly lower | 
2 | C[C@@H]1O[C@@H](OC[C@H]2O[C@@H](Oc3c(-c4ccc(O)c(O)c4)oc4cc(O)cc(O)c4c3=O)[C@H](O)[C@@H](O)[C@@H]2O)[C@H](O)[C@H](O)[C@H]1O [Rutin] |  |  |  |  |  |  |  |  | not significantly different | protected against this impairment
